The record followed here is PMC4764201, “High Throughput Screen for Escherichia coli Twin Arginine Translocation (Tat) Inhibitors” (PLoS ONE, 2016).

Entries after “also recorded” stand apart in the source; their conditions may differ.

For test [1], the target named is E. coli Tat machinery (IMVs containing overproduced TatABC) (Escherichia coli, UniProt P69423+P69425+P69428). As to the kind of experiment: In vitro Tat transport assay of pre-SufI into IMVs, NADH as energy source. In kind it is biochemical. As to conditions: for IC50: efficiency of NADH-dependent in vitro Tat transport of pre-SufI, IMVs A280 = 5; for effect on in vitro E. coli Tat transport: 90 nM pre-SufI, NADH, with and without 2.5 mM DTT; for outcome of NADH-dependent in vitro Tat transport screen (survival = visible inhibition of Tat transport): hit compound 20 μM, NADH 4 mM, 37°C 30 min. The procedure: To directly test for inhibition of Tat transport, a gel-based in vitro Tat transport assay was performed using pre-SufI, an authentic Tat precursor protein [7]. In short, this assay consists of incubating a Tat substrate and a Δψ-generating energy source with inverted membrane vesicles (IMVs) containing overproduced TatABC, digesting remaining external protein with a protease, and then analyzing via SDS-PAGE. This assay was run twice using NADH and ATP (if warranted) as energy sources to generate the necessary Δψ. NADH generates a Δψ using respiratory proteins (i.e., the NADH dehydrogenase and cytochrome bo3 ubiquinol oxidase complexes) and ATP generates a Δψ by reversal of ATP synthase. A true Tat inhibitor would survive both assays. In contrast, a respiration inhibitor is expected to reduce Tat transport when only one of the two energy sources is used (except for an ionophore).
Fig 8 Effect of Hits from the Local HTS on In Vitro Tat Transport. (A) Tat transport assays of pre-SufI using NADH to generate a Δψ. Inverted membrane vesicles (IMVs; A280 = 5.0), the fluorescent substrate pre-SufI-IAC^Atto565 (90 nM), and NADH (4 mM) were incubated at 37°C for 30 min with DMSO (control) or with hit compound (20 μM). Samples were treated with the protease proteinase K, run on SDS-PAGE, and analyzed by in-gel fluorescence imaging. Assays were run in duplicate. Band intensity corresponds to the amount of protein transported into the IMV lumen. The following 7 compounds survived this screen: 1^JS, 51^JS, 55^JS, 111^JS, 181^JS, 202^JS, and 140^JS (boxed in red). (B) Tat transport assays of pre-SufI using ATP to generate a Δψ. All 7 compounds surviving the screen in (A) were tested using a Tat transport assay performed identically to those in (A) except that ATP (1 mM) was used in place of NADH. Compound 55^JS was eliminated by this assay—the other 6 compounds survived (boxed in red). (C) Chemical structure of compound 55^JS, N-(4,7-Dioxo-4,7-dihydro-2,1,3-benzoxadiazol-5-yl)acetamide.
(§1) Isolation of inverted membrane vesicles (IMVs), Western blot analyses and purification of pre-SufI-IAC were performed as described previously. Western blots were performed using rabbit anti-mCherry antibodies (1:10,000 dilution) in the presence of 0.1% Triton X-100 and 0.1% Tween 20. The pre-SufI-IAC protein was labeled with Atto565 maleimide, and the resultant fluorescent protein, pre-SufI-IAC^Atto565, was used as a substrate for the in vitro Tat transport assays (A280 = 5.0), as described previously. The presence of a Δψ was determined by measuring oxonol VI fluorescence in presence of Tat^+ IMVs (A280 = 0.5), as described previously, except that the translocation buffer lacked BSA. Steady-state fluorescence spectra and fluorescence intensities of whole cells producing mCherry proteins were determined with an SLM-8100 spectrofluorometer.
(§2) Supplementary file pone.0149659.s003.tiff: S3 Fig IC50's for Hit Compound 181^JS. (A) The total cellular mCherry fluorescence (live cell assay; n = 1), (B) the in vitro NADH-dependent Tat transport efficiency of pre-SufI (n = 1), and (C) the maximum transmembrane electrical potential gradient (n = 1) were measured for a range of concentrations of compound 181^JS (S2E Fig). (D) SDS-PAGE gel showing in-gel fluorescence data used in (B). For (A), cells expressing spTorA-mCherry-SsrA were grown under Tat^++ conditions in a 384-well plate in the presence of 0, 0.08, 0.15, 0.3, 0.63, 1.25, 2.5, 5, 10, 20, or 40 μM compound 181^JS, as described for the HTS assay (see Methods). For (B) and (C), IMVs were incubated with the same concentrations of compound 181^JS prior to initiation of Tat transport and Δψ generation by the addition of NADH, as described previously. The red curves are best-fits using y = d + (100-d)/(1+(x/IC50)^b), where b is a slope factor and d is the high concentration asymptote. (TIFF) Click here for additional data file.

The subject of test [2] is electrical field gradient (Δψ) across IMVs. As to the kind of experiment: Δψ assay (oxonol VI fluorescence with IMVs). In kind it is biochemical, Escherichia coli. As to conditions: for IC50: electrical field gradient, IMVs A280 = 0.5, NADH. The procedure: Hit compounds surviving the in vitro Tat transport assay screens could be general Δψ inhibitors (ionophores), as both NADH and ATP generate the Δψ necessary for Tat transport. Since our current assay to measure Δψ requires ~20 times more test compound than the Tat transport assays, we reserved this assay for last. The presence of a Δψ was determined by measuring oxonol VI fluorescence. For all 8 hit compounds that survived initial secondary screening, we tested their dose dependent effect on the Δψ, on NADH-dependent in vitro Tat transport efficiency, and on the fluorescence signal recovered from our primary HTS assay (live cell assay). […] Out of 22 independent assays by three different people, compound 18^NIH inhibited Tat transport 12 times. The conflicting results seem more likely to arise from differences in IMV preparations rather than decomposition of or impurities in the samples of compound 18^NIH.
as §1, §2

Sequence of E. coli Tat machinery (IMVs containing overproduced TatABC) (P69423 2-258): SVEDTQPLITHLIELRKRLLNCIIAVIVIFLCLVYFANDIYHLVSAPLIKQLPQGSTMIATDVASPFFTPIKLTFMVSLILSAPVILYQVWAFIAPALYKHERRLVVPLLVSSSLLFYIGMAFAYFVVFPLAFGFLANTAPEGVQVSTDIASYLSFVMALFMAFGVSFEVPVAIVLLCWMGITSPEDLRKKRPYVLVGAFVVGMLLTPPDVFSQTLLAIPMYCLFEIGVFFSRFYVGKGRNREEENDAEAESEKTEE
Sequence of E. coli Tat machinery (IMVs containing overproduced TatABC) (P69425 whole entry): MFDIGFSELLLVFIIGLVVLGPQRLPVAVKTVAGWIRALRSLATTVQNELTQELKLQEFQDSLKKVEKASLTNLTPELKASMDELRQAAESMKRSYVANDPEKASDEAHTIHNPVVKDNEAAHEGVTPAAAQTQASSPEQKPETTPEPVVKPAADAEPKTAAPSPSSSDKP
Sequence of E. coli Tat machinery (IMVs containing overproduced TatABC) (P69428 whole entry): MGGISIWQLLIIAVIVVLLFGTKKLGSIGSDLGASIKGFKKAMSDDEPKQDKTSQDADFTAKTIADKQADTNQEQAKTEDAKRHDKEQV

A word on the IC50: it is the concentration at which inhibition is half-maximal. For the molecule `N#CC1c2ccccc2-n2nncc2CN1Cc1cc(Cl)cc(Cl)c1` (stereo not shown) [21^NIH, 5-[(3,5-dichlorophenyl)methyl]-4,6-dihydrotriazolo[1,5-a][1, 4]benzodiazepine-6-carbonitrile], the IC50 in test [1] was found to be 50000 nM; in test [2] it was 4000 nM.

Consider `Cc1ccc(S(=O)(=O)/C=C/C#N)cc1` [Bay 11–7082], for which the “effect on in vitro E. coli Tat transport” value in test [1] is “neither compound affected; also recorded: do not inhibit”.

In the case of `N#CC(C#N)=NNc1ccccc1Br` [Compound 1, [(2-bromophenyl)hydrazono]malononitrile], in test [1], the “outcome of NADH-dependent in vitro Tat transport screen (survival = visible inhibition of Tat transport)” value is “survived”. The IC50 in test [2] worked out at 1000 nM.

On to `Oc1cc(Cl)ccc1Oc1ccc(Cl)cc1Cl` [Compound 18^NIH, 5-Chloro-2-(2,4-dichlorophenoxy)phenol], for which, in test [2], the “effect on the Δψ across IMVs” value is “did not collapse the Δψ” and the IC50 was greater than 100000 nM.

`O=[N+]([O-])c1cc([N+](=O)[O-])c2ccccc2c1Cl` [Compound 51, 1-chloro-2,4-dinitronaphthalene]: in test [1], the “outcome of NADH-dependent in vitro Tat transport screen (survival = visible inhibition of Tat transport)” value was “survived”. In test [2], this molecule returned an IC50 of 8000 nM.

As to `Fc1nc(F)c(F)c(NNC(=S)Nc2cccc(C(F)(F)F)c2)c1F` [Compound 111, 1-[(2,3,5,6-tetrafluoropyridin-4-yl)amino]-3-[(3-trifluoromethyl)phenyl]thiourea], in test [1], the IC50 came to 700 nM and the “outcome of NADH-dependent in vitro Tat transport screen (survival = visible inhibition of Tat transport)” value is reported as “survived”. The same molecule had an IC50 in test [2] of 100 nM.

As for `FC(F)(F)c1cccc(-c2cccc3cnccc23)c1` [Compound 140, 5-[3-(trifluoromethyl)phenyl]isoquinoline], the “outcome of NADH-dependent in vitro Tat transport screen (survival = visible inhibition of Tat transport)” value in test [1] was “survived”. Moreover, the IC50 in test [2] was found to be 1000 nM.

For `O=C(Nc1cccc(C(F)(F)F)c1)Nc1ncc([N+](=O)[O-])s1` [Compound 181^JS, 1-(5-nitro-1,3-thiazol-2-yl)-3-[3-(trifluoromethyl)phenyl]urea], the “outcome of NADH-dependent in vitro Tat transport screen (survival = visible inhibition of Tat transport)” value in test [1] was “survived”. The same molecule had an IC50 in test [2] of 400 nM.

Take `O=[N+]([O-])c1ccc(O)c(-c2cccs2)c1` [Compound 202, 4-nitro-2-thiophen-2-ylphenol]: in test [1], the “outcome of NADH-dependent in vitro Tat transport screen (survival = visible inhibition of Tat transport)” value was “survived”. In addition, the IC50 in test [2] came out at 3000 nM.

With `O=C1C=CC(=O)N1c1ccccc1` [N-phenylmaleimide], in test [1], the “effect on in vitro E. coli Tat transport” value is “neither compound affected; also recorded: do not inhibit”.
